Test results: patent US20150141435A1, “2-PYRIDONE ANTIMICROBIAL COMPOSITIONS” (Emergent BioSolutions, priority 2010, published 2015)
Where a name gives a salt, the structure may show the parent alone. Read-outs that look alike come from different tables or passages of the source.

Experiments:
Format in all cases: cell-based
[1] = test system: S. aureus ATCC 25923; assay: MIC, CLSI broth microdilution (Table 1); details: Staphylococcus aureus
[2] = test system: S. aureus ATCC 43300 (MRSA, FQ-S); assay: MIC, CLSI broth microdilution (Table 1); details: Staphylococcus aureus, read-out: MIC S. aureus ATCC 43300 (MRSA, FQ-S)
[3] = test system: S. aureus BAA-1720 (MRSA, FQ-R); assay: MIC, CLSI broth microdilution (Table 1); details: Staphylococcus aureus, read-out: MIC S. aureus BAA-1720 (MRSA, FQ-R)
[4] = test system: E. faecium ATCC 19434; assay: MIC, CLSI broth microdilution (Table 1); details: Enterococcus faecium
[5] = test system: E. faecalis ATCC 29212; assay: MIC, CLSI broth microdilution (Table 1); details: Enterococcus faecalis
[6] = test system: S. pneumonia ATCC 49619; assay: MIC, CLSI broth microdilution (Table 1); details: Streptococcus pneumoniae
[7] = test system: E. coli ATCC 25922; assay: MIC, CLSI broth microdilution (Table 2); details: Escherichia coli
[8] = test system: A. baumannii ATCC 19606; assay: MIC, CLSI broth microdilution (Table 2); details: Acinetobacter baumannii
[9] = test system: P. aeruginosa ATCC 27853; assay: MIC, CLSI broth microdilution (Table 2); details: Pseudomonas aeruginosa
[10] = test system: K. pneumoniae ATCC 33495; assay: MIC, CLSI broth microdilution (Table 2); details: Klebsiella pneumoniae
[11] = test system: H. influenzae ATCC 49247; assay: MIC, CLSI broth microdilution (Table 2); details: Haemophilus influenzae
[12] = test system: S. maltophilia ATCC 17677; assay: MIC, CLSI broth microdilution (Table 2); details: Stenotrophomonas maltophilia
[13] = test system: Bacillus anthracis Ames strain; assay: microbe, parasite or virus in culture
[14] = test system: Brucella abortus ATCC 23448; assay: microbe, parasite or virus in culture; details: ATCC23448
[15] = test system: Burkholderia mallei ATCC 23344; assay: microbe, parasite or virus in culture; details: ATCC23344
[16] = test system: Burkholderia pseudomallei ATCC 23343; assay: microbe, parasite or virus in culture; details: ATCC23343
[17] = test system: Francisella tularensis Schu S4; assay: microbe, parasite or virus in culture; details: SCHUS4
[18] = test system: Yersinia pestis C092; assay: microbe, parasite or virus in culture
[19] = ATCC25923, Gram positive, MHB, 37° C., 16-20 hours, read-out: MIC S. aureus ATCC 25923
[20] = Gram positive, MHB, 37° C., 16-20 hours
[21] = ATCC19434, Gram positive, MHB, 37° C., 16-20 hours, read-out: MIC E. faecium ATCC 19434
[22] = ATCC29212, read-out: MIC E. faecalis ATCC 29212
[23] = ATCC49619, Gram positive, MHB, 37° C., 16-20 hours, read-out: MIC S. pneumonia ATCC 49619
[24] = ATCC25922, Gram negative, MHB, 37° C., 16-20 hours, read-out: MIC E. coli ATCC 25922
[25] = ATCC19606, Gram negative, MHB, 37° C., 16-20 hours, read-out: MIC A. baumannii B. ATCC 19606
[26] = ATCC27853, Gram negative, MHB, 37° C., 16-20 hours, read-out: MIC P. aeruginosa ATCC 27853
[27] = ATCC33495, read-out: MIC K. pneumoniae ATCC 33495
[28] = ATCC49247, Gram negative, MHB, 37° C., 16-20 hours, read-out: MIC H. influenzae ATCC 49247
[29] = ATCC17677, Gram negative, MHB, 37° C., 16-20 hours, read-out: MIC S. maltophilia ATCC 17677
[30] = ATCC25923, read-out: MIC S. aureus ATCC 25923
[31] = ATCC19434, read-out: MIC E. faecium ATCC 19434
[32] = ATCC49619, read-out: MIC S. pneumonia ATCC 49619
[33] = ATCC25922, read-out: MIC E. coli ATCC 25922
[34] = ATCC19606, read-out: MIC A. baumannii B. ATCC 19606
[35] = ATCC27853, read-out: MIC P. aeruginosa ATCC 27853
[36] = ATCC49247, read-out: MIC H. influenzae ATCC 49247
[37] = ATCC17677, read-out: MIC S. maltophilia ATCC 17677

Row | SMILES | MIC [5, 22] [µg/mL] | MIC [10, 27] [µg/mL] | MIC [13] [µg/mL] | MIC [14] [µg/mL] | MIC [15] [µg/mL] | MIC [16] [µg/mL] | MIC [17] [µg/mL] | MIC [18] [µg/mL] | MIC [1, 30] [µg/mL] | MIC [2] [µg/mL] | MIC [3] [µg/mL] | MIC [4, 31] [µg/mL] | MIC [6, 32] [µg/mL] | MIC [7, 33] [µg/mL] | MIC [8, 34] [µg/mL] | MIC [9, 35] [µg/mL] | MIC [11, 36] [µg/mL] | MIC [12, 37] [µg/mL] | also measured
1 | Cc1c(-c2ccnc(F)c2)ccn2c(=O)c(C(=O)O)cc(C3CC3)c12 [Example 20 K salt, 1-cyclopropyl-8-(2-fluoro-pyridin-4-yl)-9-methyl-4-oxo-4H-quinolizine-3-carboxylic acid] | 0.125 | 0.125 to 0.25 | 0.031 | 0.063 | 0.125 | 0.25 | 0.008 to 0.016 | 0.063 | – | – | – | – | – | – | – | – | – | – | MIC [1, 19]: 0.032 µg/mL; MIC [2, 20]: 0.016 µg/mL; MIC [3, 20]: 1 µg/mL; MIC [4, 21]: 1 µg/mL; MIC [6, 23]: 0.25 µg/mL; MIC [7, 24]: 0.064 µg/mL; MIC [8, 25]: 0.25 µg/mL; MIC [9, 26]: 2 to 4 µg/mL; MIC [11, 28]: ≤ 0.004 µg/mL; MIC [12, 29]: 0.25 µg/mL
2 | Cc1c(-c2ccc(N)nc2)ccn2c(=O)c(C(=O)O)cc(C3CC3)c12 [Example 21 K salt, 8-(6-amino-pyridin-3-yl)-1-cyclopropyl-9-methyl-4-oxo-4H-quinolizine-3-carboxylic acid] | 0.032 | 0.064 | 0.016 | 0.063 | 0.125 to 0.25 | 0.25 to 0.5 | 0.031 | 0.031 | 0.008 | 0.008 | 0.25 | 0.5 | 0.032 | 0.016 to 0.032 | 0.064 to 0.125 | 1 to 2 | ≤ 0.004 | 0.125 | –
3 | Cc1c(-c2ccc3[nH]ncc3c2)ccn2c(=O)c(C(=O)O)cc(C3CC3)c12 [Example 23 K salt, 1-cyclopropyl-8-(1H-indazol-5-yl)-9-methyl-4-oxo-4H-quinolizine-3-carboxylic acid] | 0.008 | 0.125 | 0.004 | 0.016 | 0.063 | 0.063 | 0.016 | 0.016 to 0.031 | ≤ 0.004 | ≤ 0.004 | 0.125 | 0.25 | 0.064 | 0.032 | 0.125 | 2 | ≤ 0.004 | 0.064 | –
4 | Cc1c(-c2cc(F)c(N)cc2F)ccn2c(=O)c(C(=O)O)cc(C3CC3)c12 [Example 28 K salt, 8-(4-amino-2,5-difluoro-phenyl)-1-cyclopropyl-9-methyl-4-oxo-4H-quinolizine-3-carboxylic acid] | 0.016 | 0.25 to 0.5 | 0.004 | 0.031 to 0.063 | 0.125 to 0.25 | 0.125 | 0.008 | 0.016 to 0.031 | ≤ 0.004 | ≤ 0.004 | 0.064 | 0.25 | 0.032 | 0.032 to 0.064 | 0.125 | 2 | ≤ 0.004 | 0.125 | –
5 | Cc1c(-c2ccc(CN)cc2)ccn2c(=O)c(C(=O)O)cc(C3CC3)c12 [Example 31 K salt, 8-(4-(aminomethyl)-phenyl)-1-cyclopropyl-9-methyl-4-oxo-4H-quinolizine-3-carboxylic acid] | 0.25 | 0.125 to 0.25 | 0.016 to 0.031 | 0.25 | 0.5 to 1 | 1 | 0.125 to 0.5 | 0.25 | 0.064 | 0.032 | 1 | 2 | 0.125 | 0.032 | 0.25 | 1 | 0.016 | 0.125 | –
6 | Cc1c(-c2ccc(Cl)cc2)ccn2c(=O)c(C(=O)O)cc(C3CC3)c12 [Example 45 K salt, 1-cyclopropyl-8-(4-chloro-phenyl)-9-methyl-4-oxo-4H-quinolizine-3-carboxylic acid] | – | – | 0.016 | 0.031 | 0.063 to 0.125 | 0.063 to 0.125 | 0.008 to 0.016 | 0.031 | – | – | – | – | – | – | – | – | – | – | MIC [1, 19]: 0.016 to 0.032 µg/mL; MIC [2, 20]: 0.016 µg/mL; MIC [3, 20]: 0.5 µg/mL; MIC [4, 21]: 0.5 to 1 µg/mL; MIC ([5]; ATCC29212, Gram positive, MHB, 37° C., 16-20 hours, read-out: MIC E. faecalis ATCC 29212): 0.064 µg/mL; MIC [6, 23]: 0.25 µg/mL; MIC [7, 24]: 0.25 µg/mL; MIC [8, 25]: 0.25 µg/mL; MIC [9, 26]: 2 µg/mL; MIC ([10]; ATCC33495, Gram negative, MHB, 37° C., 16-20 hours, read-out: MIC K. pneumoniae ATCC 33495): 0.5 to 1 µg/mL; MIC [11, 28]: 0.016 µg/mL; MIC [12, 29]: 0.25 µg/mL
7 | Cc1c(-c2ccc(O)cc2)ccn2c(=O)c(C(=O)O)cc(C3CC3)c12 [Example 46 K salt, 1-cyclopropyl-8-(4-hydroxy-phenyl)-9-methyl-4-oxo-4H-quinolizine-3-carboxylic acid] | 0.016 | 0.064 | 0.004 | 0.031 | 0.063 | 0.063 | 0.016 | 0.008 to 0.016 | ≤ 0.004 | ≤ 0.004 | 0.125 | 0.25 | 0.032 | 0.032 | 0.064 | 1 to 2 | ≤ 0.004 | 0.125 | –
